Measured values as given in ChEMBL document CHEMBL3885881, “DrugMatrix”.

Species: Rattus norvegicus
Test: DrugMatrix - Regimen: Daily Repeat
Assay type: toxicity, organism-based, Sprague-Dawley
Parameters: regimen Daily Repeat, gender Male, age 6-8 weeks
Conditions: in vivo, po, route oral GAVAGE, vehicle 100 % SALINE; for ABSOLUTE BASOPHIL / ABSOLUTE EOSINOPHIL / ABSOLUTE LYMPHOCYTE / ABSOLUTE MONOCYTE / ABSOLUTE SEGMENTED NEUTROPHIL / BASOPHIL / EOSINOPHIL / ERYTHROCYTE COUNT / HEMATOCRIT / HEMOGLOBIN / LEUKOCYTE COUNT / LYMPHOCYTE / MEAN CORPUSCULAR HEMOGLOBIN / MEAN CORPUSCULAR HEMOGLOBIN CONCENTRATION / MEAN CORPUSCULAR VOLUME / MONOCYTE / NEUTROPHIL / NUCLEATED RED BLOOD CELLS / PLATELET COUNT: tissue Blood; for ALANINE AMINOTRANSFERASE / ALBUMIN / ALKALINE PHOSPHATASE / ASPARTATE AMINOTRANSFERASE / BLOOD UREA NITROGEN / CARBON DIOXIDE / CHLORIDE / CHOLESTEROL / CREATINE PHOSPHOKINASE / CREATININE / GLUCOSE / LACTATE DEHYDROGENASE / LIPASE / PHOSPHORUS / POTASSIUM / SODIUM / TOTAL BILIRUBIN / TOTAL PROTEIN / URIC ACID: tissue Plasma
[1] = 59 mg/kg, 120 h, dose level Low, time 5 day
[2] = 400 mg/kg, 72 h, dose level High, time 3 day
[3] = 400 mg/kg, 120 h, dose level High, time 5 day

NC(=O)NO [HYDROXYUREA]
ABSOLUTE BASOPHIL [1]: 0 CELLS/uL | ABSOLUTE EOSINOPHIL [1]: 40 CELLS/uL | ABSOLUTE LYMPHOCYTE [1]: 7014.67 CELLS/uL | ABSOLUTE MONOCYTE [1]: 87.67 CELLS/uL | ABSOLUTE SEGMENTED NEUTROPHIL [1]: 557.67 CELLS/uL | BASOPHIL [1]: 0% | EOSINOPHIL [1]: 0.67% | ERYTHROCYTE COUNT [1]: 5.35 x10E6/uL | HEMATOCRIT [1]: 34.53% | HEMOGLOBIN [1]: 13.4 G/DL | LEUKOCYTE COUNT [1]: 7.7 x10E3/uL | LYMPHOCYTE [1]: 90.67% | MEAN CORPUSCULAR HEMOGLOBIN [1]: 25.1 pg | MEAN CORPUSCULAR HEMOGLOBIN CONCENTRATION [1]: 38.83 G/DL | MEAN CORPUSCULAR VOLUME [1]: 64.63 fL | MONOCYTE [1]: 1% | NEUTROPHIL [1]: 7.67% | NUCLEATED RED BLOOD CELLS [1]: 0 /100WBC | PLATELET COUNT [1]: 1286 x10E3/uL | ALANINE AMINOTRANSFERASE [1]: 54 u/L | ALBUMIN [1]: 4.1 G/DL | ALKALINE PHOSPHATASE [1]: 381.33 u/L | ASPARTATE AMINOTRANSFERASE [1]: 80.33 u/L | BLOOD UREA NITROGEN [1]: 12.33 mg/dL | CARBON DIOXIDE [1]: 29.67 mmol/L | CHLORIDE [1]: 98 MEQ/L | CHOLESTEROL [1]: 64 mg/dL | CREATINE PHOSPHOKINASE [1]: 314.67 u/L | CREATININE [1]: 0.22 mg/dL | GLUCOSE [1]: 169.33 mg/dL | LACTATE DEHYDROGENASE [1]: 90.33 u/L | LIPASE [1]: 10.67 u/L | PHOSPHORUS [1]: 10.9 mg/dL | POTASSIUM [1]: 5.6 MEQ/L | SODIUM [1]: 143.13 MEQ/L | TOTAL BILIRUBIN [1]: 0.17 mg/dL | TOTAL PROTEIN [1]: 6.1 G/DL | URIC ACID [1]: 0.8 mg/dL | ABSOLUTE BASOPHIL [2]: 0 CELLS/uL | ABSOLUTE EOSINOPHIL [2]: 0 CELLS/uL | ABSOLUTE LYMPHOCYTE [2]: 4351 CELLS/uL | ABSOLUTE MONOCYTE [2]: 16 CELLS/uL | ABSOLUTE SEGMENTED NEUTROPHIL [2]: 133 CELLS/uL | BASOPHIL [2]: 0% | EOSINOPHIL [2]: 0% | ERYTHROCYTE COUNT [2]: 4.56 x10E6/uL | HEMATOCRIT [2]: 29.63% | HEMOGLOBIN [2]: 11.37 G/DL | LEUKOCYTE COUNT [2]: 4.5 x10E3/uL | LYMPHOCYTE [2]: 96.67% | MEAN CORPUSCULAR HEMOGLOBIN [2]: 24.93 pg | MEAN CORPUSCULAR HEMOGLOBIN CONCENTRATION [2]: 38.43 G/DL | MEAN CORPUSCULAR VOLUME [2]: 64.87 fL | MONOCYTE [2]: 0.33% | NEUTROPHIL [2]: 3% | NUCLEATED RED BLOOD CELLS [2]: 0 /100WBC | PLATELET COUNT [2]: 1033 x10E3/uL | ALANINE AMINOTRANSFERASE [2]: 39.67 u/L | ALBUMIN [2]: 3.97 G/DL | ALKALINE PHOSPHATASE [2]: 323.33 u/L | ASPARTATE AMINOTRANSFERASE [2]: 76 u/L | BLOOD UREA NITROGEN [2]: 10 mg/dL | CARBON DIOXIDE [2]: 30.33 mmol/L | CHLORIDE [2]: 100.67 MEQ/L | CHOLESTEROL [2]: 77.33 mg/dL | CREATINE PHOSPHOKINASE [2]: 221.33 u/L | CREATININE [2]: 0.2 mg/dL | GLUCOSE [2]: 154.67 mg/dL | LACTATE DEHYDROGENASE [2]: 79 u/L | LIPASE [2]: 9 u/L | PHOSPHORUS [2]: 10.53 mg/dL | POTASSIUM [2]: 5.6 MEQ/L | SODIUM [2]: 144.93 MEQ/L | TOTAL BILIRUBIN [2]: 0.1 mg/dL | TOTAL PROTEIN [2]: 5.93 G/DL | URIC ACID [2]: 0.53 mg/dL | ABSOLUTE BASOPHIL [3]: 0 CELLS/uL | ABSOLUTE EOSINOPHIL [3]: 0 CELLS/uL | ABSOLUTE LYMPHOCYTE [3]: 4141 CELLS/uL | ABSOLUTE MONOCYTE [3]: 8.33 CELLS/uL | ABSOLUTE SEGMENTED NEUTROPHIL [3]: 117.33 CELLS/uL | BASOPHIL [3]: 0% | EOSINOPHIL [3]: 0% | ERYTHROCYTE COUNT [3]: 4.75 x10E6/uL | HEMATOCRIT [3]: 30.23% | HEMOGLOBIN [3]: 11.9 G/DL | LEUKOCYTE COUNT [3]: 4.27 x10E3/uL | LYMPHOCYTE [3]: 97% | MEAN CORPUSCULAR HEMOGLOBIN [3]: 25.03 pg | MEAN CORPUSCULAR HEMOGLOBIN CONCENTRATION [3]: 39.37 G/DL | MEAN CORPUSCULAR VOLUME [3]: 63.63 fL | MONOCYTE [3]: 0.33% | NEUTROPHIL [3]: 2.67% | NUCLEATED RED BLOOD CELLS [3]: 0 /100WBC | PLATELET COUNT [3]: 955 x10E3/uL | ALANINE AMINOTRANSFERASE [3]: 47 u/L | ALBUMIN [3]: 3.97 G/DL | ALKALINE PHOSPHATASE [3]: 216.67 u/L | ASPARTATE AMINOTRANSFERASE [3]: 84.67 u/L | BLOOD UREA NITROGEN [3]: 11.33 mg/dL | CARBON DIOXIDE [3]: 28.67 mmol/L | CHLORIDE [3]: 100.67 MEQ/L | CHOLESTEROL [3]: 82 mg/dL | CREATINE PHOSPHOKINASE [3]: 362.67 u/L | CREATININE [3]: 0.1 mg/dL | GLUCOSE [3]: 158.67 mg/dL | LACTATE DEHYDROGENASE [3]: 74 u/L | LIPASE [3]: 8.67 u/L | PHOSPHORUS [3]: 10.1 mg/dL | POTASSIUM [3]: 5.3 MEQ/L | SODIUM [3]: 144.07 MEQ/L | TOTAL BILIRUBIN [3]: 0.1 mg/dL | TOTAL PROTEIN [3]: 5.87 G/DL | URIC ACID [3]: 0.47 mg/dL
